Assay results as given in publication PMC8506611, “Discovery and Characterization of Novel Antagonists of the Proinflammatory Orphan Receptor GPR84” (ACS Pharmacology & Translational Science, 2021).
Values joined by “and” are separate entries in the source; they are usually repeats but may differ in a detail not shown here. Equal values may be shown once. Values belong to the molecule of their own block, whether it stands above or below them.

Tests used:
[1] = system: mouse GPR84-Gαi2 fusion protein; test: [^35S]GTPγS binding assay, membranes of Flp-In TREx 293 cells expressing mouse GPR84-Gαi2; type: biochemical
Procedure: (§1) All data are presented as means ± SEM of at least three independent experiments. Data analysis and curve fitting was carried out using the GraphPad Prism software package version 8 (GraphPad, San Diego). For functional assays the concentration–response data were plotted on a log axis, with the untreated vehicle control plotted at 1 log unit lower than the lowest ligand concentration and fitted to a three parameter sigmoidal curve with the Hill slope constrained to equal 1. In case of inhibition experiments with antagonists, an equivalent analysis was followed to fit an inverse sigmoidal curve. To perform the statistical analysis of curve parameters, data from multiple experiments were fitted independently and resulting curve fit values were analyzed with indicated tests. Antagonism experiments carried out with multiple defined concentrations of antagonist were fit to a global Gaddum/Schild EC50 shift equation to estimate pA2 values for the antagonist. For radioligand binding data, saturation binding curves were generated by fitting the specific binding, which was obtained by subtracting nonspecific from total binding, to a one site specific binding model that allows calculation of Kd values for the radioligand at wild-type and mutant receptors.

[2] = target: T1, human GPR84-Gαi2 fusion protein (Homo sapiens, UniProt Q9NQS5); test: [^35S]GTPγS binding assay, membranes of Flp-In TREx 293 cells expressing human GPR84-Gαi2; type: biochemical; conditions: for pA2: Gaddum/Schild analysis, shifts in potency of 2-HTP, mean ± SEM; for Gaddum/Schild slope: Schild plots versus 2-HTP
Procedure: as §1, with “For functional assays the concentration–response data were plotted on a log axis, with the untreated vehicle control plotted at 1 log unit lower than the lowest ligand concentration and fitted to a three parameter sigmoidal curve with the Hill slope constrained to equal 1.” left out

[3] = target: T2, rat GPR84 (Rattus norvegicus, UniProt D4ACK0); test: cAMP regulation assay in CHO cells expressing rat GPR84; type: cell-based; conditions: versus EC80 of 6-OAU
T2 construct: expressed in transfected cells

[4] = target: T3, mouse GPR84 (Mus musculus, UniProt Q8CIM5); test: cAMP regulation assay in CHO cells expressing mouse GPR84; type: cell-based; conditions: versus EC80 of 6-OAU
T3 construct: expressed in transfected cells

[5] = target: macaque GPR84 (Macaca mulatta, UniProt F6W0J1); test: cAMP regulation assay in CHO cells expressing macaque GPR84; type: cell-based; conditions: versus EC80 of 6-OAU
[6] = target: T4, pig GPR84 (Sus scrofa, UniProt I6WJ99); test: cAMP regulation assay in CHO cells expressing pig GPR84; type: cell-based; conditions: versus EC80 of 6-OAU
T4 construct: expressed in transfected cells

[7] = target: T5, dog GPR84 (Canis lupus familiaris, UniProt A0A8I3P3M6); test: cAMP regulation assay in CHO cells expressing dog GPR84; type: cell-based; conditions: versus EC80 of 6-OAU
T5 construct: expressed in transfected cells

[8] = target: GPR84 in RAW264.7 cells (Mus musculus, UniProt Q8CIM5); test: [^35S]GTPγS binding assay, membranes of RAW264.7 cells; conditions: RAW264.7 membranes
[9] = system: Thr^102Ala, Ser^363Gly mouse GPR84; test: [^35S]GTPγS binding assay, Thr102Ala-Ser363Gly mouse GPR84 mutant; type: biochemical
Procedure: (§2) The Stratagene QuikChange method (Stratagene, Agilent Technologies, Santa Clara, CA) was used to introduce alterations into FLAG-human GPR84-Gαi2 or FLAG-mouse GPR84-Gαi2. Primers utilized for mutagenesis were provided by MWG Operon (Acton, UK). Template DNA was digested with DpnI to leave only the newly synthesized mutated plasmid, and sequencing was carried out to confirm the introduction of the alterations.
as §1

[10] = target: T6, ECL3/TM7 chimeric human/mouse GPR84 (Mus musculus, UniProt Q8CIM5, G345V/R346Q/S363G/V354L); test: Antagonism of 2-HTP at ECL3/TM7 human/mouse GPR84 chimera in Flp-In TREx 293 cells; type: cell-based
T6 construct: expressed in transfected cells; host or cells: Flp-In TREx 293 cells
Excerpt: (§3) Chimeric human-mouse GPR84-HA constructs were generated using synthetic DNA sequences purchased from Eurofins Genomics (Luxembourg), that were then subcloned in-frame into the BamH1 and Xho1 sites of pcDNA5/FRT/TO.

[11] = target: T1, human GPR84-Gαi2 fusion protein; test: cAMP assay in Flp-In TREx 293 cells expressing human GPR84-Gαi2; type: cell-based
Procedure: cAMP experiments were performed using Flp-In T-REx293 cells induced to express the receptor of interest or CHO-K1 cells stably expressing the orthologue of interest. Experiments were carried out using a homogeneous time-resolved FRET-based detection kit (CisBio, Codolet, France) according to the manufacturer’s protocol. For the assay cells were plated at 5000 cells/well in low-volume 384-well plates. The ability of agonists to inhibit 1 μM forskolin-induced cAMP production was assessed following a preincubation for 15 min with antagonist compounds, then a further 30 min incubation with agonist compounds. Reactions were stopped according to the manufacturer’s instructions and the output was measured with a PHERAstar FS plate reader (BMG Labtech, Aylesbury, UK).

[12] = target: T7, Humanized mGPR84 (Homo sapiens, UniProt Q9NQS5, A294V/A296R/A298P/D231Q/D276G/G248R/H223R/H226Q/I278G/I301T/K216G/K284Q/K289R/K302A/L245V/M286I/N225H/N279I/P291L/P300E/P308T/Q210R/Q299R/Q379H/Q48R/R218H/R229G/R237H/R244G/R282A/R390Q/S280R/S295H/S310A/S311P/V274A); test: Antagonism of 2-HTP at humanized mGPR84 chimera in Flp-In TREx 293 cells; type: cell-based; conditions: all ECL and TMD residues human in mouse backbone
T7 construct: expressed in transfected cells; host or cells: Flp-In TREx 293 cells
Excerpt: as §3

[13] = target: T8, GPR84 in LPS-treated THP-1 cells (Homo sapiens, UniProt Q9NQS5); test: [^35S]GTPγS binding assay, membranes of LPS-treated THP-1 cells; type: biochemical; conditions: LPS-treated THP-1 membranes
T8 construct: GPR84 expressed endogenously in human-derived cell lines and tissue; endogenous in cells; host or cells: THP-1 cells, 100 ng/mL LPS for 24 h, membranes

[14] = system: Ala^102Thr, Gly^363Ser human GPR84; test: [^35S]GTPγS binding assay, Ala102Thr-Gly363Ser human GPR84 mutant; type: biochemical
Procedure: as §2, §1

[15] = target: T8, GPR84 in LPS-treated THP-1 cells; test: [^3H]140 binding assay, membranes of LPS-treated THP-1 cells; conditions: LPS-treated THP-1 membranes
Procedure: as §1, with “For functional assays the concentration–response data were plotted on a log axis, with the untreated vehicle control plotted at 1 log unit lower than the lowest ligand concentration and fitted to a three parameter sigmoidal curve with the Hill slope constrained to equal 1.” left out

[16] = system: parental Flp-In TREx 293 cells; test: [^3H]140 binding assay, membranes from parental cells; conditions: parental cell membranes
Procedure: (§4) Binding was initiated by the addition of membranes (5 μg of protein per tube). All assays were performed at 25 °C for 1 h before termination by the addition of ice-cold PBS and vacuum filtration through GF/C glassfibre filter-bottom 96-well microplates. Plates were washed three times with ice-cold PBS then allowed to dry for 2–3 h at room temperature. MicroScint-20 was added to dried filter plates, and radioactivity was quantified by liquid scintillation spectrometry. Specific binding was defined as the difference between binding detected in the presence and absence of 10 μM compound 020.

[17] = system: Ala^102Thr, Gly^363Ser human GPR84; test: [^3H]140 binding assay, Ala102Thr-Gly363Ser human GPR84-Gαi2
Procedure: as §2, §4
All data are presented as means ± SEM of at least three independent experiments. Data analysis and curve fitting was carried out using the GraphPad Prism software package version 8 (GraphPad, San Diego). […] To perform the statistical analysis of curve parameters, data from multiple experiments were fitted independently and resulting curve fit values were analyzed with indicated tests. […]

[18] = system: mouse GPR84-Gαi2 fusion protein; test: [^3H]140 binding assay, membranes expressing mouse GPR84-Gαi2
Procedure: as §4
All data are presented as means ± SEM of at least three independent experiments. Data analysis and curve fitting was carried out using the GraphPad Prism software package version 8 (GraphPad, San Diego). For functional assays the concentration–response data were plotted on a log axis, with the untreated vehicle control plotted at 1 log unit lower than the lowest ligand concentration and fitted to a three parameter sigmoidal curve with the Hill slope constrained to equal 1. In case of inhibition experiments with antagonists, an equivalent analysis was followed to fit an inverse sigmoidal curve. To perform the statistical analysis of curve parameters, data from multiple experiments were fitted independently and resulting curve fit values were analyzed with indicated tests. […]

T1 sequence (Q9NQS5 whole entry, the tested form may be a part): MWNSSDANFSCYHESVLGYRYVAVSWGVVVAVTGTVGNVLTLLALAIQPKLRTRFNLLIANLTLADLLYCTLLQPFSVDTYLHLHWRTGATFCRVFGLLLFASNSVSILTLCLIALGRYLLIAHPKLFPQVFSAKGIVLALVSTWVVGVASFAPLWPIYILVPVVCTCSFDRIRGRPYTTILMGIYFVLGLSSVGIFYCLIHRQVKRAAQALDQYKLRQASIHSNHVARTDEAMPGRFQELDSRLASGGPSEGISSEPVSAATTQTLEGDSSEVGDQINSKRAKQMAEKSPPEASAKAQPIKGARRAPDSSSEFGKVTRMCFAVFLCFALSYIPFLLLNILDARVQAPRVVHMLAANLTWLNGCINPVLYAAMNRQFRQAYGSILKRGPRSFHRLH
T1 sequence (P04899 2-355, further chain): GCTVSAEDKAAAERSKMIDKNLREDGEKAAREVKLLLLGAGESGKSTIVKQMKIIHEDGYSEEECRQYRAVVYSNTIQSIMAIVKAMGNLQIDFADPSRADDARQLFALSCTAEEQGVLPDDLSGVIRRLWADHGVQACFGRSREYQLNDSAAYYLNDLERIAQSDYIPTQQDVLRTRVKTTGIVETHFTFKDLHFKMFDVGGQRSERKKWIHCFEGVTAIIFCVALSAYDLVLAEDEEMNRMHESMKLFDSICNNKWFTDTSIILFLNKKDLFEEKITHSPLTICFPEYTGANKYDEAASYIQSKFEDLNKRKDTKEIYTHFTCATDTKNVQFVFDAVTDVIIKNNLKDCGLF
T8 sequence (Q9NQS5 whole entry): as the sequence (Q9NQS5 whole entry, the tested form may be a part) above
Sequence of macaque GPR84 (F6W0J1 1-396): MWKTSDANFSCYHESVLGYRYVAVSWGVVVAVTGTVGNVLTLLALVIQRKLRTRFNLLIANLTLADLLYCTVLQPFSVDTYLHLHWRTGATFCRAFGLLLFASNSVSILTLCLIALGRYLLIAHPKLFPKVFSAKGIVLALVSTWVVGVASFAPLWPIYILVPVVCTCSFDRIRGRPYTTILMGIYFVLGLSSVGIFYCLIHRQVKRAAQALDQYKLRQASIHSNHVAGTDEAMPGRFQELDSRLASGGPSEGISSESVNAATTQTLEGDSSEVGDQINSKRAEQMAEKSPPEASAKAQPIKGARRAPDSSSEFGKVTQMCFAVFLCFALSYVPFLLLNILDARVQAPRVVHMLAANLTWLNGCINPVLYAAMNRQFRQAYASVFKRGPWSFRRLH
T7 sequence (Q9NQS5 with tags, fused parts or gaps with the stated changes): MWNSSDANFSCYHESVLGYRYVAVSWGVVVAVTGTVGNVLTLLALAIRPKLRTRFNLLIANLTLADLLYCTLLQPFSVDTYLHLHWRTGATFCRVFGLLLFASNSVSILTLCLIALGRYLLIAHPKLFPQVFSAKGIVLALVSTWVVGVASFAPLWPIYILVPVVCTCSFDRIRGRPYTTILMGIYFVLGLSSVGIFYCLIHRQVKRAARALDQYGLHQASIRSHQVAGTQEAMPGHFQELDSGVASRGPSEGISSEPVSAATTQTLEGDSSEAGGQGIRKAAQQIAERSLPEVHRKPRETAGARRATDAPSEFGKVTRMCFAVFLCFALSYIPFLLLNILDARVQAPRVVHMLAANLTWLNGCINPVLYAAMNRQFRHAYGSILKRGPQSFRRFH
T2 sequence (D4ACK0 1-396): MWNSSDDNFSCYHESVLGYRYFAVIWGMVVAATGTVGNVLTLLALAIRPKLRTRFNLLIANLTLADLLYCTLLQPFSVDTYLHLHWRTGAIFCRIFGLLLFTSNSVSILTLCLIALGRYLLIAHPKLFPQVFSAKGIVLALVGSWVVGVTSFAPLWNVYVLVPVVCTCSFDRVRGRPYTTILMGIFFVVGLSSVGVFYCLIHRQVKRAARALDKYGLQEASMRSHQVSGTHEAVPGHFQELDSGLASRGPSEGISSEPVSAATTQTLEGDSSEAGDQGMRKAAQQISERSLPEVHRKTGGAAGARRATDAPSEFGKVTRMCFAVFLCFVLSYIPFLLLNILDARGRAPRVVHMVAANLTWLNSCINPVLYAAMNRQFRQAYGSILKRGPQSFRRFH
T4 sequence (I6WJ99 1-396): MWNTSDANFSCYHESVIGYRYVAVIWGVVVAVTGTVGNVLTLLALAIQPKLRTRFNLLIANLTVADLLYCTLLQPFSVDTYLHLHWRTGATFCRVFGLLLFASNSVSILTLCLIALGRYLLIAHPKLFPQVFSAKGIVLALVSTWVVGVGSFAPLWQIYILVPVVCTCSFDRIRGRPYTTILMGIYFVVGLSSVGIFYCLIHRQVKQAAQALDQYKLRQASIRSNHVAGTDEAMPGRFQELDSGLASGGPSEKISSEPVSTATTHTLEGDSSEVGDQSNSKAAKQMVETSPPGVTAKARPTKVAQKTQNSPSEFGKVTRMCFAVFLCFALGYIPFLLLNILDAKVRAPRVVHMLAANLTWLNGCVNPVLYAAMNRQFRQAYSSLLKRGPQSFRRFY
T3 sequence (Q8CIM5 whole entry): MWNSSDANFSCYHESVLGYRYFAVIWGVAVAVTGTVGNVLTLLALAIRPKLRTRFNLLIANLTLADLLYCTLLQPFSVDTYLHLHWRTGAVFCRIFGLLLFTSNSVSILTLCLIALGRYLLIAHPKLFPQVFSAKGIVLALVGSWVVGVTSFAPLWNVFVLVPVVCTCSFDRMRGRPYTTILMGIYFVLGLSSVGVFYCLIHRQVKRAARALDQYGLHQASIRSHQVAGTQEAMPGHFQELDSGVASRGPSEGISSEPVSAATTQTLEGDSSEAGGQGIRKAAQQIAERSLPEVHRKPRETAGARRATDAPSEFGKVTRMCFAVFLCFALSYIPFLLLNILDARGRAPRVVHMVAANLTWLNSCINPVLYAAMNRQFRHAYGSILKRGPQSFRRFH
Sequence of GPR84 in RAW264.7 cells (Q8CIM5 whole entry): as above
T6 sequence (Q8CIM5 whole entry G345V/R346Q/V354L/S363G): as the sequence (Q8CIM5 whole entry) above, with G345V, R346Q, V354L, S363G counted along it
T5 sequence (A0A8I3P3M6 1-393): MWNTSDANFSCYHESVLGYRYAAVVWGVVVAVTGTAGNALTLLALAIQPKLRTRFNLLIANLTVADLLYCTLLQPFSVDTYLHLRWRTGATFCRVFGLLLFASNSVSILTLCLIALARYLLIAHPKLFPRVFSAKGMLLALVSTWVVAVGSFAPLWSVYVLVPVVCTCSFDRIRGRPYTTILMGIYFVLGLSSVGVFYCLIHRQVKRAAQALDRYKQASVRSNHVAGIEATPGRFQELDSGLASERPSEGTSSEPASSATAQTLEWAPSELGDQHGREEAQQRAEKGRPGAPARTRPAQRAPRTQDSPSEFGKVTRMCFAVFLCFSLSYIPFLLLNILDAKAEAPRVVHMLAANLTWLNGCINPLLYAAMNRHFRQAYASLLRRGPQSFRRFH

Structure (SMILES): c1ccc(-c2nnc(Cc3c[nH]c4ccccc34)nc2-c2ccccc2)cc1 [Compound 140, 3-((5,6-Diphenyl-1,2,4-triazin-3-yl)methyl)-1H-indole]
IC50 [3]: 8.7 µM
IC50 [4]: > 10 µM
IC50 [5]: 6.4 nM
IC50 [6]: 5.6 nM
IC50 [7]: 8.1 nM

Structure (SMILES): COc1ccc(-c2nnc(Cc3c[nH]c4ccccc34)nc2-c2ccc(OC)cc2)cc1 [Compound 837, 3-((5,6-Bis(4-methoxyphenyl)-1,2,4-triazin-3-yl)methyl)-1H-indole]
antagonism of mouse GPR84 ([1]; EC80 of 2-HTP): no significant capacity to antagonize
affinity (from pA2) ([1]; wild-type mouse GPR84): < 100 μM
block of 2-HTP-induced [^35S]GTPγS binding [8]: unable to produce such an effect
block of activation by 2-HTP [9]: able to fully block activation by 2-HTP
fold higher affinity than at wild-type mouse GPR84 ([9]; from pA2): at least 5000 fold
fold lower affinity than at wild-type human GPR84 ([9]; from pA2): ~13 fold
pA2 ([9]; versus 2-HTP, mean ± SEM n = 3): 7.78 ± 0.08
IC50 [10]: 363 nM
block of activation promoted by 2-HTP ([2]; EC80 of 2-HTP): fully block
block of activation promoted by 6-OAU ([2]; EC80 of 6-OAU): fully block
pA2 [2]: 8.90 ± 0.08 and 8.9
Gaddum/Schild slope [2]: 1.11 ± 0.04
IC50 ([2]; against an EC80 of embelin): < 100 nM
reversal of activation produced by DIM ([2]; allosteric activator DIM): fully reversed
block of inhibition of forskolin-amplified cAMP levels by 2-HTP ([11]; 2-HTP): fully blocked
block of inhibition of forskolin-amplified cAMP levels by 6-OAU ([11]; 6-OAU): fully blocked
affinity at humanized chimera compared with wild-type human receptor [12]: equal affinity
block of 2-HTP-induced [^35S]GTPγS binding [13]: blocked in a concentration-dependent and high potency manner
block of activation by 2-HTP [14]: unable to block
fold lower affinity than at wild-type human GPR84 ([14]; from pA2): 380 fold
pA2 ([14]; versus 2-HTP, mean ± SEM n = 3): 6.33 ± 0.15

Structure (SMILES): c1ccc(-c2nnc(Cc3c[nH]c4ccccc34)nc2-c2ccccc2)cc1 [[^3H]140, [^3H]3-((5,6-diphenyl-1,2,4-triazin-3-yl)methyl)-1H-indole]
Bmax [15]: 905 ± 93 fmol/mg membrane protein
specific binding [16]: no specific binding
direct binding [17]: not possible to measure binding
specific binding [18]: unable to detect specific binding

Continued, in another order:

pA2 [2]: 9.19 ± 0.10
Gaddum/Schild slope [2]: 1.27 ± 0.03
Structure (SMILES): CC(=O)OCc1ccc(-c2nc(Cc3c[nH]c4ccccc34)nnc2-c2ccccc2)cc1 [Compound 020, 4-(3-((1H-indol-3-yl)methyl)-6-phenyl-1,2,4-triazin-5-yl)benzyl acetate]
pA2 ([1]; Gaddum/Schild analysis versus 2-HTP, wild-type mouse GPR84): < 6.0
fold higher concentrations than required to antagonize human GPR84 ([1]; limited effects at mouse GPR84): at least 1000 fold

pA2 [2]: 9.31 ± 0.10
Gaddum/Schild slope [2]: 1.14 ± 0.03
Structure (SMILES): CC(=O)OCc1ccc(-c2nnc(Cc3c[nH]c4ccccc34)nc2-c2ccccc2)cc1 [Compound 021, 4-(3-((1H-indol-3-yl)methyl)-5-phenyl-1,2,4-triazin-6-yl)benzyl acetate]

pA2 [2]: 8.07 ± 0.02
Structure (SMILES): Ic1ccc(-c2nnc(Cc3c[nH]c4ccccc34)nc2-c2ccc(I)cc2)cc1 [Compound 441, 3-((5,6-Bis(4-iodophenyl)-1,2,4-triazin-3-yl)methyl)-1H-indole]
